Assay results taken from PMC12133982, “Predominant T-cell epitopes of SARS-CoV-2 restricted by multiple prevalent HLA-B and HLA-C allotypes in Northeast Asia” (Frontiers in Immunology, 2025).
Peptide text beside a SMILES is read from it.

Tests used:
HLA-B1501 = HLA-B1501 (Homo sapiens, UniProt P01889, A329T/A93T/A95T/C349S/D201E/D98Y/E187L/E204Q/E69M/E70A/K202T/N87E/Q94N/R155S/R180W/S121R/S35A/S48A/V306I/V36M/Y140S/Y91S); test: Competitive peptide binding assay, CIR-B1501; conditions: HMy2.CIR-B1501 cells, reference Cy5-[…], class from inhibition at 5 and 15 μM, flow cytometry MFI; read-out: Binding affinity with HLA-B1501
Protocol: (§1) Then, competitive peptide binding assays were performed.

HLA-B3501 = HLA-B3501 (Homo sapiens, UniProt P01889, A329T/A93T/A95T/C349S/D201E/D98Y/E176V/E187L/E204Q/E69T/I218V/K202T/L119I/Q94N/R155S/R180L/S121R/S35A/S48A/T118I/V127L/V306I/V36M/Y140S/Y91F); test: Competitive peptide binding assay, CIR-B3501; conditions: HMy2.CIR-B3501 cells, reference Cy5-[…], class from inhibition at 5 and 15 μM, flow cytometry MFI; read-out: Binding affinity with HLA-B3501
Protocol: as §1

HLA-B5101 = HLA-B5101 (Homo sapiens, UniProt P01889, A329T/A93T/A95T/C349S/D138N/D201E/D98Y/E187L/E204Q/E69T/G107R/I218V/K202T/L105A/L119W/N104I/Q94N/R106L/R155S/R180L/S101N/S121T/S35A/S48A/V306I/V36M/Y195H/Y91F); test: Competitive peptide binding assay, CIR-B5101; conditions: HMy2.CIR-B5101 cells, reference Cy5-[…], class from inhibition at 5 and 15 μM, flow cytometry MFI; read-out: Binding affinity with HLA-B5101
Protocol: as §1

HLA-B5801 = HLA-B5801 (Homo sapiens, UniProt P01889, A329T/C349S/D201E/D98Y/E176V/E187L/E204Q/E69T/G107R/I218V/I90N/K202T/L105A/L119I/N104I/N87E/Q89R/Q94S/R106L/R155S/R180L/R86G/S101N/S121R/S35A/S48A/T118I/V127L/V306I/V36M/Y140S/Y91M); test: Competitive peptide binding assay, CIR-B5801; conditions: HMy2.CIR-B5801 cells, reference Cy5-[…], class from inhibition at 5 and 15 μM, flow cytometry MFI; read-out: Binding affinity with HLA-B5801
Protocol: as §1

HLA-B1502 = HLA-B1502 (Homo sapiens, UniProt P01889, A329T/A93T/A95T/C349S/D201E/D98Y/E187L/E204Q/E69M/E70A/H137Y/K202T/L119I/Q94N/R155S/R180L/S121R/S35A/S48A/T118I/V306I/V36M/Y140S/Y91S); test: Competitive peptide binding assay, CIR-B1502; conditions: HMy2.CIR-B1502 cells, reference Cy5-[…], class from inhibition at 5 and 15 μM, flow cytometry MFI; read-out: Binding affinity with HLA-B1502
Protocol: as §1

HLA-B4001 = HLA-B4001 (Homo sapiens, UniProt P01889, A65T/A93T/A95T/D138N/D98Y/E176V/E69K/N87E/Q56L/Q94N/R180L/S121R/S35A/S48T/T167S/V36M/W171L/Y33H/Y91S); test: Competitive peptide binding assay, CIR-B4001; conditions: HMy2.CIR-B4001 cells, reference Cy5-[…], class from inhibition at 5 and 15 μM, flow cytometry MFI; read-out: Binding affinity with HLA-B4001
Protocol: as §1

HLA-B1301 = HLA-B1301 (Homo sapiens, UniProt P01889, A65T/A93T/A95T/D138N/D201E/D98Y/E176V/E204Q/E69M/E70A/G107R/K202T/L105A/L119I/N104T/N87E/Q94N/R106L/R155S/R169L/R180L/S101N/S121R/S35A/S48T/T118I/V127L/V36M/Y140L/Y91S); test: Competitive peptide binding assay, CIR-B1301; conditions: HMy2.CIR-B1301 cells, reference Cy5-[…], class from inhibition at 5 and 15 μM, flow cytometry MFI; read-out: Binding affinity with HLA-B1301
Protocol: as §1

HLA-B1302 = HLA-B1302 (Homo sapiens, UniProt P01889, A65T/A93T/A95T/D138N/D201E/D98Y/E176V/E204Q/E69M/E70A/G107R/K202T/L105A/L119W/N104T/N87E/Q94N/R106L/R155S/R169L/R180L/S101N/S121T/S35A/S48T/V127L/V36M/Y140L/Y91S); test: Competitive peptide binding assay, CIR-B1302; conditions: HMy2.CIR-B1302 cells, reference Cy5-MMWYWGPSL, class from inhibition at 5 and 15 μM, flow cytometry MFI; read-out: Binding affinity with HLA-B1302
Protocol: as §1

HLA-B4403 = HLA-B4403 (Homo sapiens, UniProt P01889, A223V/A65T/A93T/A95T/D201E/D98Y/E176V/E187L/E204Q/E69K/G107R/H137Y/K202T/L105A/L119I/N104T/N87E/Q56L/Q94N/R106L/R155S/R180L/S101N/S121R/S35A/S48T/T118I/V36M/W191S/Y140D/Y91S); test: Competitive peptide binding assay, CIR-B4403; conditions: HMy2.CIR-B4403 cells, reference Cy5-CYMEAVAL, class from inhibition at 5 and 15 μM, flow cytometry MFI; read-out: Binding affinity with HLA-B4403
Protocol: as §1

HLA-B4601 = HLA-B4601 (Homo sapiens, UniProt P01889, A329T/A93R/C349S/D201E/E100V/E187L/E204Q/E69M/E70A/I90K/K202T/N87E/R155S/R180W/S121R/S35A/S48A/V306I/V36M/Y140S); test: Competitive peptide binding assay, CIR-B4601; conditions: for IC50: HMy2.CIR-B4601 cells, reference Cy5-[…], class from inhibition at 5 and 15 μM, flow cytometry MFI, read-out: Binding affinity with HLA-B4601
Protocol: as §1

HLA-B0702 = target: T1, HLA-B0702 (Homo sapiens, UniProt P01889); test: Competitive peptide binding assay, CIR-B0702; conditions: HMy2.CIR-B0702 cells, reference Cy5-[…], class from inhibition at 5 and 15 μM, flow cytometry MFI
T1 construct: expressed in transfected cells; host or cells: HMy2.CIR
Protocol: as §1

HLA-B4801 = HLA-B4801 (Homo sapiens, UniProt P01889, A269T/A93T/A95T/D138N/D98Y/E176V/N87E/Q94N/R180L/T167S/W171L/Y91S); test: Competitive peptide binding assay, CIR-B4801; conditions: HMy2.CIR-B4801 cells, reference Cy5-[…], class from inhibition at 5 and 15 μM, flow cytometry MFI; read-out: Binding affinity with HLA-B4801
Protocol: as §1

SMILES	IC50 (HLA-B1501)	IC50 (HLA-B3501)	IC50 (HLA-B5101)	IC50 (HLA-B5801)	IC50 (HLA-B1502)	IC50 (HLA-B4001)	IC50 (HLA-B1301)	IC50 (HLA-B1302)	IC50 (HLA-B4403)	IC50 (HLA-B4601)	IC50 (HLA-B0702)	IC50 (HLA-B4801)	inhibition at 5 µM (HLA-B4601; read-out: Inhibition % of Cy5-reference peptide binding, CIR-B4601, 5μM peptide)	inhibition at 15 µM (HLA-B4601; read-out: Inhibition % of Cy5-reference peptide binding, CIR-B4601, 15μM peptide)
CC(C)C[C@H](NC(=O)[C@H](CCC(N)=O)NC(=O)[C@@H](NC(=O)[C@H](CS)NC(=O)[C@H](Cc1ccccc1)NC(=O)[C@H](CO)NC(=O)CNC(=O)[C@H](Cc1ccc(O)cc1)NC(=O)[C@H](CCC(N)=O)NC(=O)[C@@H](N)CC(C)C)[C@@H](C)O)C(=O)O [Epitope Y88] (H-LQYGSFCTQL-OH; N-terminus and C-terminus assumed)	> 15 µM	5 to 15 µM	> 15 µM	> 15 µM										
CC[C@H](C)[C@H](NC(=O)[C@H](CC(N)=O)NC(=O)[C@H](CCCCN)NC(=O)[C@H](Cc1ccccc1)NC(=O)[C@@H](NC(=O)[C@@H](N)Cc1ccccc1)C(C)C)C(=O)N[C@@H](CC(=O)O)C(=O)NCC(=O)N[C@@H](Cc1ccc(O)cc1)C(=O)O [Epitope Y172] (H-FVFKNIDGY-OH; N-terminus and C-terminus assumed)	< 5 µM	5 to 15 µM	> 15 µM	< 5 µM	5 to 15 µM	> 15 µM	> 15 µM	> 15 µM	> 15 µM	> 15 µM	> 15 µM			
CSCC[C@H](NC(=O)[C@H](CCCCN)NC(=O)CN)C(=O)N[C@@H](CCCCN)C(=O)N[C@@H](CC(=O)O)C(=O)N[C@@H](CC(C)C)C(=O)N[C@@H](CO)C(=O)N1CCC[C@H]1C(=O)N[C@@H](CCCNC(=N)N)C(=O)N[C@@H](Cc1c[nH]c2ccccc12)C(=O)O [Epitope Y224] (H-GKMKDLSPRW-OH; N-terminus and C-terminus assumed)	> 15 µM	> 15 µM					> 15 µM			> 15 µM		5 to 15 µM	32.3%	52.3%
CC[C@H](C)[C@H](NC(=O)[C@@H](NC(=O)[C@H](CC(N)=O)NC(=O)[C@H](CCCNC(=N)N)NC(=O)[C@H](CCCCN)NC(=O)[C@@H](NC(=O)[C@H](Cc1ccc(O)cc1)NC(=O)[C@H](C)NC(=O)[C@@H](N)Cc1ccccc1)[C@@H](C)O)C(C)C)C(=O)O [Epitope Y276] (H-FAYTKRNVI-OH; N-terminus and C-terminus assumed)	> 15 µM	> 15 µM	5 to 15 µM		> 15 µM		< 5 µM							
CC[C@H](C)[C@H](NC(=O)[C@H](CC(=O)O)NC(=O)[C@H](CCCNC(=N)N)NC(=O)CNC(=O)[C@H](Cc1ccccc1)NC(=O)[C@H](CCC(N)=O)NC(=O)[C@H](CCC(N)=O)NC(=O)[C@H](Cc1ccccc1)NC(=O)[C@@H]1CCCN1C(=O)[C@@H](N)CC(C)C)C(=O)O [Epitope Y282] (H-LPFQQFGRDI-OH; N-terminus and C-terminus assumed)	5 to 15 µM				> 15 µM		> 15 µM					> 15 µM		
